Test results published in the METLIN SMRT retention time set (Domingo-Almenara et al. 2019).

Test: gradient 5% acetonitrile 3 min, to 50% in 2 min, to 85% in 15 min, held 3 min, 100 µL/min
Settings: column: Zorbax Extend-C18 2.1 x 50 mm; eluents: water / acetonitrile, 0.1% formic acid
Summary of the method: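 Retention time was recorded from adduct peaks, which were picked computationally and each inspected manually. Pure standards ran in mixtures of ~100 molecules on HPLC coupled to a quadrupole time-of-flight mass spectrometer, in positive and negative ionization mode, through a Zorbax Extend-C18 column (2.1 × 50 mm, 1.8 μm) at 100 μL/min. Eluents were water and acetonitrile, each with 0.1% formic acid.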

Structure (SMILES)	RP-LC retention time
CC(=O)N1CCc2cc(N3CC(C(=O)Nc4ccccc4Br)CC3=O)ccc21 (stereo not drawn)	699 s
COc1c(C(=O)N2CCN(c3ccccc3)CC2)sc2cccc(F)c12	1090 s
CC(C)c1noc(-c2cccnc2N2CCCN(Cc3cccc(F)c3)CC2)n1	708 s
Cc1ccc(-c2cn3cc(C(=O)NC(C)c4cccnc4)ccc3n2)cc1 (stereo not drawn)	571 s
Cc1cc2c(cc1S(=O)(=O)N1CCCC1C(=O)Nc1ccc(F)cc1)OC(C)C(=O)N2 (stereo not drawn)	775 s
CCn1c(=O)c(N2CCCC(C(=O)N3CCN(c4ccc(Cl)cc4)CC3)C2)nc2ccccc21 (stereo not drawn)	1230 s
O=C(O)C1CCN(S(=O)(=O)c2cccc([N+](=O)[O-])c2)CC1	663 s
Cc1nc(-c2ccncc2)nc2c1CCC(=O)N2Cc1cccs1	723 s
CC(CCc1ccccc1)NC(=O)c1ccc2c(c1)CCCN2S(C)(=O)=O (stereo not drawn)	935 s
CCC(C)NC(=O)C1(c2ccc(NS(C)(=O)=O)cc2)CCCCC1 (stereo not drawn)	736 s
Cc1[nH]c(=O)[nH]c(=O)c1CC(=O)NCCc1cccs1	574 s
CC(=O)c1cccc(NC(=O)Cn2c(N3CCc4ccccc4C3)nc(C)cc2=O)c1	723 s
COC(=O)c1cc(OCC(=O)Nc2ccc(OC)c(Cl)c2)c2cc(OC)ccc2n1	867 s
O=C(Nc1cccc(-c2ccc(N3CCOCC3)nn2)c1)Nc1cccc(C(F)(F)F)c1	782 s
CCN1c2ccccc2C(=O)NC12CCN(C(=O)c1ccc(F)c(F)c1)CC2	799 s
CC1CCN(c2cc(-n3cnc(C(=O)Nc4ccc5c(c4)OCO5)c3)ncn2)CC1	1060 s
COCCN1C(=O)c2ccccc2C(C(=O)NCCCN2CCC(C)CC2)C1c1cccs1 (stereo not drawn)	640 s
Cc1nc(-c2cc(S(=O)(=O)Nc3ccccc3Cl)c(C)s2)sc1C	1120 s
COc1ccc(CC(=O)N2CCCC2c2cc(C(C)C)on2)cc1OC (stereo not drawn)	800 s
CCCC(=O)Nc1nc(-c2ccc3c(c2)N(C)C(=O)CO3)c(C)s1	856 s
O=C(c1cccc(Br)c1)N1CCN(c2cc(-c3ccccc3)[nH]n2)CC1	852 s
COc1cccc(CNC(=O)NCCc2nc3cccnc3n2Cc2ccccc2)c1	723 s

Structure (SMILES)	RP-LC retention time
Cc1ccc(-n2cccc2CC(=O)NC2CCCCC2)cc1	1020 s
COCCNC(=O)c1cc2c(n(-c3ccc(F)cc3)c1=O)CCCC2=O	701 s
CC(C)n1c(CCNC(=O)c2ccc(F)cc2)nc2cccnc21	656 s
CCc1nc2cccnc2n1CCN1CCN(C(=O)Nc2cc(C)ccc2C)CC1	598 s
CCn1cc(CCNC(=O)c2cccnc2SC)c2cccnc21	647 s
Cc1ccc(NC(=O)N2CCc3nc(-c4ccc(F)cc4)ncc3C2)cc1C	1020 s
Cc1noc(C)c1CNC(=O)Cc1ccc(F)cc1	713 s
O=C(NC1CC1)C1CCCN(c2ccc(Sc3ccc(Br)cc3)nn2)C1 (stereo not drawn)	785 s
COc1cc(-c2noc(C3CC(=O)N(c4cccc(Cl)c4)C3)n2)cc(OC)c1OC (stereo not drawn)	1010 s
COC(=O)c1ncn2c1C(=O)N(Cc1ccccc1)C(C)(C(=O)NC1CCCCC1)C2 (stereo not drawn)	750 s
Cc1nc2cc(-c3noc(C(C)NC(=O)c4ccccc4)n3)ccc2o1 (stereo not drawn)	811 s
CCCC(=O)NC1CCN(c2ccc(C)c(C)c2)C1=O (stereo not drawn)	736 s
CCOC(=O)c1cn(Cc2cccc(F)c2)c2nc(C)ccc2c1=O	878 s
CCOC(=O)C1C(=O)C(=O)N(C(C)C)C1C(=O)OCC (stereo not drawn)	782 s
CC(=O)N1c2ccc(S(=O)(=O)NCc3ccc4c(c3)CCN4C(=O)CC(C)C)cc2CC1C (stereo not drawn)	874 s
CCN(CC)C(=O)Cn1nc2cc(-c3ccc(OC)cc3)nc(C)n2c1=O	842 s
COc1ccc(S(=O)(=O)N2CCCC(C(=O)Nc3cccc(F)c3)C2)cc1C (stereo not drawn)	1040 s
O=C(COc1ccccc1F)Nc1ccc2c(c1)CN(C(=O)c1ccco1)CC2	770 s
COc1ccccc1C(=O)N1CCc2c(c(-c3nnc(-c4ccccc4Cl)o3)nn2C)C1	806 s
O=C(Nc1ccc(F)cc1F)c1c(O)c2cccnc2n(-c2ccc(F)cc2)c1=O	957 s
CCCn1nc(C)cc1CN(C)C(=O)Cn1nc2n(c1=O)CCC(N)CC2 (stereo not drawn)	561 s
CC(C)NC(=O)N1CCCC(c2cccc(C(=O)NCc3ccc(OC(C)C)cc3)c2)C1 (stereo not drawn)	939 s

Structure (SMILES)	RP-LC retention time
Cc1ccc(C(C)NC(=O)C2CCN(c3nccnc3Oc3ccccc3)CC2)cc1C (stereo not drawn)	1070 s
Cc1cc(C)c(NC(=O)Cn2nc3c(Oc4ccccc4C)nccn3c2=O)c(C)c1	894 s
CCn1cc(C(=O)NCc2ccc(C)cc2)c(S(=O)(=O)N2CCSCC2)n1	944 s
O=C(CN1CCN(Cc2cccc(Cl)c2)C1=O)NCC1CCCCC1	920 s
Cc1ccc(N2CC(c3nc(-c4ccc5c(c4)oc(=O)n5C(C)C)no3)CC2=O)cc1 (stereo not drawn)	990 s
O=C(NCCC1=CCCCC1)C1CCN(Cc2cc3ccccc3n2Cc2ccccc2)CC1	880 s
Cc1cc(C)n(CC(=O)N2CCC[C@H]2c2nc(-c3ccccc3)n[nH]2)n1	641 s
O=C(O)c1cccc2c1CCN2S(=O)(=O)c1ccccc1F	812 s
O=C(NC(c1ccccc1)c1nnc(N2CCOCC2)o1)c1cccc(F)c1 (stereo not drawn)	758 s
CCN1c2ccc(C)cc2C(=O)NC12CCN(C(=O)Cc1ccc(Cl)cc1)CC2	919 s
COCC(=O)N1CCCCCNC(=O)[C@@H]2CCCC[C@@H]21	631 s
CCN(CC)CCNC(=O)CCc1cc2cc(C)ccc2[nH]c1=O	587 s
Cc1nc(-c2noc(-c3ccncc3)n2)cn1CC(=O)NCc1ccc(F)cc1	885 s
Cc1ccc(NC(=O)N2CC(n3cnnc3-c3ccccc3)C2)cc1C	715 s
O=C(Cn1cnc2c(sc3nc(-c4ccccc4)ccc32)c1=O)Nc1cccc(Cl)c1	1080 s
COc1ccc(CNc2ccc(S(=O)(=O)C(C)(C)C)nn2)cc1OC	711 s
CCCc1nc(-c2ccccc2)oc1CC(=O)N1CCN(c2ccccc2F)CC1	1090 s
Cn1nc(CNC(=O)c2cnccn2)c2ccccc21	689 s
O=C(c1ccco1)N1CCCC(c2ccnc(-c3ccccc3)n2)C1 (stereo not drawn)	962 s
Cc1ccc2oc(-c3nnc(C(=O)NCCN4CCC(C)CC4)o3)c(C)c2c1	674 s
CCc1nc2cc(N3CCC(C(=O)NC(C)c4ccccn4)CC3)cnc2nc1CC (stereo not drawn)	628 s
Cc1cc(NC(=O)c2cn(C)nc2S(=O)(=O)N2CCSCC2)ccc1F	960 s

Structure (SMILES)	RP-LC retention time
Cc1ccc(-c2ccc3nnc(CCC(=O)NCc4ccccc4C(F)(F)F)n3n2)cc1	794 s
CSc1cccc(NC(=O)Cn2cc(-c3ccccc3)c3ncn(C4CC4)c(=O)c32)c1	1020 s
Cc1cc(=O)n(CC(=O)Nc2ccc(F)c(Cl)c2)c(-c2ccccc2)n1	1090 s
C=Cc1ccc(Cn2cc(S(=O)(=O)N3CCCCCC3)ccc2=O)cc1	1020 s
O=C(c1ccc2cc[nH]c2c1)N1CCN(c2cc(-c3ccccc3)[nH]n2)CC1	748 s
COc1ccc(NC(=O)Cn2c(C)nc3c(sc4nc(-c5ccccc5)ccc43)c2=O)cc1Cl	1090 s
CCN1C(=O)c2cccnc2Sc2cc(NC(=O)c3ccc(C(F)(F)F)cc3)ccc21	950 s
O=C(NC1CCCCCC1)C1CCCN(c2ncc(-c3cccc(F)c3)cn2)C1 (stereo not drawn)	1160 s
COc1ccc(CNC(=O)C2CCN(C(=O)c3nn(C)c4c3CN(C(=O)C(C)C)CC4)CC2)cc1	662 s
CC1CCN(c2cc(-n3cnc(C(=O)N4CCN(c5ccccc5)CC4)c3)ncn2)CC1	1040 s
Cc1noc([C@@H]2CN(Cc3c(F)cccc3Cl)C[C@H]2CO)n1	605 s
CN1CCC(N2CCN(S(=O)(=O)c3ccccc3F)CC2)C1=O (stereo not drawn)	545 s
Fc1ccc(CN2CCC(Cc3nc(-c4cccnc4)n[nH]3)C2)c(F)c1 (stereo not drawn)	564 s
O=S(=O)(c1ccc(Br)s1)N1CCCC1c1nc(-c2ccc(F)cc2)no1 (stereo not drawn)	1180 s
CCOC(=O)c1cnc(N2CCN(c3cccc(Cl)c3)CC2)c2ccccc12	652 s
COCCCNC(=O)C1CCN(S(=O)(=O)c2ccc3c(c2)NC(=O)CO3)CC1	627 s
O=C(Cn1ccn2nc(-c3ccccc3)c(CO)c2c1=O)Nc1cccc(Cl)c1	856 s
Cc1cc2c(cc1S(=O)(=O)N1CCCC1C(=O)Nc1ccc(C(F)(F)F)cc1)OCC(=O)N2 (stereo not drawn)	873 s
O=S(=O)(Nc1cccc(F)c1)c1ccccc1-c1nc(-c2ccccc2)no1	1170 s
CCCn1cnc2cc(CNC(=O)c3ccc(Cl)c(Cl)c3)ccc21	683 s
O=C(NCC1CCCO1)c1ccc(-c2cnc(Oc3ccc(F)cc3)nc2)cc1 (stereo not drawn)	793 s
CC1CCN(C(=O)C2=CN(c3ccccc3)c3cc(Cl)ccc3S2(=O)=O)CC1	999 s
